According to patent US11066409B2, “Bicyclic nitrogen-containing heterocyclic derivatives and pharmaceutical composition comprising the same” (Shionogi & Co., Ltd., priority 2016, dated 2021):

Molecular target: human P2X7 receptor (Homo sapiens (Human), UniProt Q99572, R270H)
Assay: Evaluation of a human P2X7 receptor inhibitory activity (Yo-Pro uptake, BzATP stimulation, FLIPR TETRA)
Format: cell-based
Details: 1321N1 cells stably expressing human P2X7 receptor, Yo-Pro fluorescence
Experimental: Evaluation of a human P2X7 receptor inhibitory activity Stably expressing cell line (1321N1 cell transfected with the human P2X7 receptor gene (GenBank accession number NM_002562.5 including T606C and G952A SNP)) was used. The cells were seeded in a 384-well microtiter plate at a concentration of 8000 cells/well and cultured in the medium (10% fetal bovine serum, 25 mM HEPES, 1% penicillin and streptomycin in DMEM) for one day at 37° C. under 5% carbon dioxide atmosphere. After replacing with 20 μL of the HBSS buffer (20 mM HEPES, 55.6 mM D-glucose, 1× HBSS(−), pH7.4-7.5), 15 μL of 17.3 μM Yo-Pro solution in the HBSS buffer was added. The plate was placed in high-throughput cellular screening system FLIPR TETRA (Molecullar Devices, LLC.) and 15 μL of 130 μM BzATP solution in the HBSS buffer was added. Measurement of fluorescence intensity by FLIPR TETRA was started. After eight minutes, 15 μL of DMSO solutions containing different concentrations of the compound of the present invention as prepared by dilution with the HBSS buffer were dispensed to each well through the built-in automatic dispenser, and the measurement of fluorescence intensity was continued for 20 minutes. The maximum fluorescence intensity without the compound of the present invention is calculated as 0% inhibition and the maximum fluorescence intensity when the reference compound was added is calculated as 100% inhibition. Changing values of fluorescence intensity by the compound of the present invention were calculated by difference between maximum and minimum fluorescence intensity for 20 minutes. Inhibition ratios (%) were calculated from the following equation:
[formula] IC50 was calculated using logistic approximation.
As for IC50 value, value to below 10 nmol/L is represented as “A”, value from 10 nmol/L to below 100 nmol/L is represented as “B”, value from 100 nmol/L to below 500 nmol/L is represented as “C”, and value from 500 nmol/L to below 1 μmol/L is represented as “D”.

Sequence of human P2X7 receptor (Q99572 whole entry R270H): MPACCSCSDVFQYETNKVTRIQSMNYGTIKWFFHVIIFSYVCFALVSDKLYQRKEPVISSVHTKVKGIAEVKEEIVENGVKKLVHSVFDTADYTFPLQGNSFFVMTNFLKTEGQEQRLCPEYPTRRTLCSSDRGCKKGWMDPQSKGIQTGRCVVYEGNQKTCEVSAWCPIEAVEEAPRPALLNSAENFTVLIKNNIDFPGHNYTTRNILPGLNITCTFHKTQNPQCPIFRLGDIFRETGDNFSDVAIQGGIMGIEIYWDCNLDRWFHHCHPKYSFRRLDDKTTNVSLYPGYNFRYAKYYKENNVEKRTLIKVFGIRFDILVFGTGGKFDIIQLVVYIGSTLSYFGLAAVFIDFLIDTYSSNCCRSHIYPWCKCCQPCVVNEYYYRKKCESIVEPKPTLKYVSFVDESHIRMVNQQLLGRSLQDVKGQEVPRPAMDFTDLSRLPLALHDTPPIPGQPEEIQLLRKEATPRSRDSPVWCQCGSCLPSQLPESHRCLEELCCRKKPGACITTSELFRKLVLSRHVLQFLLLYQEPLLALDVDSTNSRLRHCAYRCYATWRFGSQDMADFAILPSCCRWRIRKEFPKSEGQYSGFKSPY

## Cc1cc2c(cc1Nc1nc(=O)cc3n1C(c1cc(F)cc(F)c1)CC3)COC2 (centres unmarked) [Compound I-0066]
Class symbols
  IC50: < 10 nM

## Cc1cc2c(cc1Nc1nc(=O)cc3n1C(c1ccc(F)cc1)CC3)COC2 (centres unmarked) [Compound I-0067]
Class symbols
  IC50: < 10 nM

## COc1ccc(/N=c2\[nH]c(=O)c(F)c3n2C(c2ccc(F)cc2F)CC3)c(C)n1 (centres unmarked) [Compound I-0068]
Class symbols
  IC50: 10 to 100 nM

## COc1ccc(/N=c2\[nH]c(=O)c(F)c3n2C(c2ccc(F)cc2)CC3)c(C)n1 (centres unmarked) [Compound I-0069]
  IC50: 10 nM

## COc1ccc(/N=c2\[nH]c(=O)cc3n2C(c2ccc(F)cc2)CC3)c(C)n1 (centres unmarked) [Compound I-0070]
Class symbols
  IC50: 10 to 100 nM

## COc1cnc(C)c(Nc2nc(=O)cc3n2C(c2cc(F)cc(F)c2)CC3)c1 (centres unmarked) [Compound I-0071]
Class symbols
  IC50: 10 to 100 nM

## COc1nc(C)c(Nc2nc(=O)cc3n2C(c2cc(F)cc(F)c2)CC3)cc1F (centres unmarked) [Compound I-0072]
Class symbols
  IC50: 10 to 100 nM

## Cc1cc2c(cc1/N=c1\[nH]c(=O)c(F)c3n1C(c1ccc(F)cc1F)CC3)COC2 (centres unmarked) [Compound I-0073]
Class symbols
  IC50: 10 to 100 nM

## Cc1cc2c(cc1/N=c1\[nH]c(=O)c(F)c3n1C(c1ccc(F)cc1)CC3)COC2 (centres unmarked) [Compound I-0074]
Class symbols
  IC50: < 10 nM

## CCOc1ccc(/N=c2\[nH]c(=O)cc3n2C(c2ccc(F)cc2F)CC3)c(CC)n1 (centres unmarked) [Compound I-0075]
Class symbols
  IC50: 10 to 100 nM

## CCOc1ccc(/N=c2\[nH]c(=O)c(F)c3n2C(c2ccc(F)cc2F)CC3)c(CC)n1 (centres unmarked) [Compound I-0076]
Class symbols
  IC50: 10 to 100 nM

## Cc1cc(OC(F)F)ccc1Nc1nc(=O)cc2n1C(c1ccc(F)cc1)CC2 (centres unmarked) [Compound I-0077]
Class symbols
  IC50: < 10 nM

## COc1cnc(C)c(/N=c2\[nH]c(=O)c(F)c3n2C(c2ccc(F)cc2)CC3)c1 (centres unmarked) [Compound I-0078]
Class symbols
  IC50: 10 to 100 nM

## COc1cnc(C)c(/N=c2\[nH]c(=O)cc3n2C(c2ccc(F)cc2)CC3)c1 (centres unmarked) [Compound I-0079]
Class symbols
  IC50: 10 to 100 nM

## CCOc1ccc(/N=c2\[nH]c(=O)c(F)c3n2C(c2ccc(F)cc2)CC3)c(C)n1 (centres unmarked) [Compound I-0080]
Class symbols
  IC50: < 10 nM

## CCOc1ccc(/N=c2\[nH]c(=O)c(F)c3n2C(c2ccc(F)cc2F)CC3)c(C)n1 (centres unmarked) [Compound I-0081]
Class symbols
  IC50: 10 to 100 nM

## CCOc1nc(C)c(Nc2nc(=O)cc3n2C(c2ccc(F)cc2F)CC3)cc1F (centres unmarked) [Compound I-0082]
Class symbols
  IC50: 10 to 100 nM

## CCOc1nc(C)c(Nc2nc(=O)c(F)c3n2C(c2ccc(F)cc2F)CC3)cc1F (centres unmarked) [Compound I-0083]
Class symbols
  IC50: 10 to 100 nM

## COc1nc(C)c(Nc2nc(=O)cc3n2C(c2ccc(F)cc2F)CC3)cc1F (centres unmarked) [Compound I-0084]
Class symbols
  IC50: 10 to 100 nM

## COc1ccc(Nc2nc(=O)c(Cl)c3n2C(c2cc(F)cc(F)c2)CC3)c(C)n1 (centres unmarked) [Compound I-0085]
Class symbols
  IC50: 10 to 100 nM

## COc1ccc(Nc2nc(=O)c(Br)c3n2C(c2cc(F)cc(F)c2)CC3)c(C)n1 (centres unmarked) [Compound I-0086]
Class symbols
  IC50: 10 to 100 nM

## COc1ccc(Nc2nc(=O)c(C)c3n2C(c2cc(F)cc(F)c2)CC3)c(C)n1 (centres unmarked) [Compound I-0087]
Class symbols
  IC50: 10 to 100 nM

## Cc1[nH]c(=O)c(F)cc1Nc1nc(=O)cc2n1C(c1ccc(F)cc1F)CC2 (centres unmarked) [Compound I-0088]
Class symbols
  IC50: 500 to 1000 nM

## COc1ccc(Nc2nc(=O)c(-c3ccccc3)c3n2C(c2cc(F)cc(F)c2)CC3)c(C)n1 (centres unmarked) [Compound I-0089]
Class symbols
  IC50: 10 to 100 nM

## COc1nc(C)c(Nc2nc(=O)cc3n2C(c2cc(F)c(F)c(F)c2)CC3)cc1F (centres unmarked) [Compound I-0090]
Class symbols
  IC50: 10 to 100 nM

## C=Cc1c2n(c(Nc3ccc(OC)nc3C)nc1=O)C(c1cc(F)cc(F)c1)CC2 (centres unmarked) [Compound I-0091]
  IC50: 17 nM

## CCc1c2n(c(Nc3ccc(OC)nc3C)nc1=O)C(c1cc(F)cc(F)c1)CC2 (centres unmarked) [Compound I-0092]
Class symbols
  IC50: 10 to 100 nM

## COc1ccc(/N=c2\[nH]c(=O)c(F)c3n2C(c2ccc(F)cc2F)CC3)c(C)n1 (centres unmarked) [Compound I-0093]
Class symbols
  IC50: 100 to 500 nM

## COc1nc(C)c(Nc2nc(=O)cc3n2C(c2ccc(F)c(Cl)c2)CC3)cc1F (centres unmarked) [Compound I-0094]
Class symbols
  IC50: 10 to 100 nM

## COc1ccc(/N=c2\[nH]c(=O)c(F)c3n2C(c2cc(F)cc(F)c2)CC3)c(C)n1 (centres unmarked) [Compound I-0095]
Class symbols
  IC50: 10 to 100 nM

## CCOc1ccc(Nc2nc(=O)c(F)c3n2C(c2cc(F)cc(F)c2)CC3)c(CC)n1 (centres unmarked) [Compound I-0096]
Class symbols
  IC50: 10 to 100 nM

## COc1ccc(Nc2nc(=O)c(F)c3n2C(c2cc(F)cc(F)c2)CC3)c(C)c1 (centres unmarked) [Compound I-0097]
Class symbols
  IC50: < 10 nM

## COc1ccc(C)c(Nc2nc(=O)c(F)c3n2C(c2cc(F)cc(F)c2)CC3)c1 (centres unmarked) [Compound I-0098]
Class symbols
  IC50: < 10 nM

## Cc1nc2cc(C)c(Nc3nc(=O)cc4n3C(c3ccccc3)CN4)cc2s1 (centres unmarked) [Compound I-0100]
  IC50: 12 nM

## Cc1nc2cc(C)c(Nc3nc(=O)c(F)c4n3C(c3cc(F)cc(F)c3)CC4)cc2s1 (centres unmarked) [Compound I-0101]
Class symbols
  IC50: 10 to 100 nM

## Cc1nc2cc(C)c(Nc3nc(=O)cc4n3C(c3ccccc3)CN4C)cc2s1 (centres unmarked) [Compound I-0103]
Class symbols
  IC50: 10 to 100 nM

## COc1ccc(Nc2nc(=O)cc3n2C(c2ccccc2)CN3C)c(C)c1 (centres unmarked) [Compound I-0104]
Class symbols
  IC50: 10 to 100 nM

## COc1ccc(C)c(Nc2nc(=O)cc3n2C(c2ccccc2)CN3C)c1 (centres unmarked) [Compound I-0105]
Class symbols
  IC50: 10 to 100 nM

## Cc1cc(C)c(Nc2nc(=O)cc3n2C(c2ccccc2)CN3C)cc1C (centres unmarked) [Compound I-0106]
  IC50: 11 nM

## CCN1C(=O)N=C(Nc2cc(C)c(C)cc2C)N2C1=NCC2c1ccccc1 (centres unmarked) [Compound I-0107]
  IC50: 25 nM

## COc1ccc(Nc2nc(=O)c(F)c3n2C(c2cc(F)cc(F)c2)CC3)c(C)c1F (centres unmarked) [Compound I-0108]
Class symbols
  IC50: 10 to 100 nM

## CCN1C(=O)N=C(Nc2cc(C)c(C)cc2C)N2C1=NCC2c1ccc(F)cc1 (centres unmarked) [Compound I-0109]
Class symbols
  IC50: 10 to 100 nM

## COc1ccc(Nc2nc(=O)cc3n2C(c2ccccc2)CN3C)c(C)c1 (centres unmarked) [Compound I-0110]
Class symbols
  IC50: < 10 nM

## CCN1C(=O)N=C(Nc2cc(C)c(C)cc2C)N2C1=NCC2c1ccccc1 (centres unmarked) [Compound I-0111]
Class symbols
  IC50: < 10 nM

## CCN1C(=O)N=C(Nc2ccc(C)nc2C)N2C1=NCC2c1ccc(F)cc1 (centres unmarked) [Compound I-0112]
Class symbols
  IC50: 500 to 1000 nM

## CN1C(=O)N=C(Nc2cc(C3CC3)nn2C)N2C1=NCC2c1ccc(F)cc1 (centres unmarked) [Compound I-0113]
Class symbols
  IC50: 500 to 1000 nM

## Cc1ccc(NC2=NC(=O)N(C)C3=NCC(c4cc(F)cc(F)c4)N23)c(C)n1 (centres unmarked) [Compound I-0114]
Class symbols
  IC50: 100 to 500 nM

## Cc1ccc(NC2=NC(=O)N(C)C3=NCC(c4ccc(F)c(F)c4)N23)c(C)n1 (centres unmarked) [Compound I-0115]
Class symbols
  IC50: 100 to 500 nM

## COc1cc(NC2=NC(=O)N(C)C3=NCC(c4ccc(F)c(F)c4)N23)c(C)nc1OC (centres unmarked) [Compound I-0116]
Class symbols
  IC50: 100 to 500 nM

## CCN1C(=O)N=C(Nc2ccc(OC)nc2C)N2C1=NCC2c1ccc(F)cc1 (centres unmarked) [Compound I-0117]
Class symbols
  IC50: 100 to 500 nM

## CCN1C(=O)N=C(Nc2cc(OC)c(OC)nc2C)N2C1=NCC2c1ccc(F)cc1 (centres unmarked) [Compound I-0118]
Class symbols
  IC50: 100 to 500 nM

## COc1ccc(NC2=NC(=O)N(C)C3=NCC(c4ccc(F)cc4)N23)c(C)n1 (centres unmarked) [Compound I-0119]
Class symbols
  IC50: 10 to 100 nM

## Cc1ccc(NC2=NC(=O)N(C)C3=NCC(c4ccc(F)cc4)N23)c(C)n1 (centres unmarked) [Compound I-0120]
Class symbols
  IC50: 100 to 500 nM

## COc1cc(C)c(NC2=NC(=O)N(C)C3=NCC(c4ccc(F)cc4)N23)cc1OC (centres unmarked) [Compound I-0121]
Class symbols
  IC50: 10 to 100 nM

## COc1ccc(NC2=NC(=O)N(C)C3=NCC(c4cc(F)cc(F)c4)N23)c(C)c1 (centres unmarked) [Compound I-0122]
Class symbols
  IC50: 10 to 100 nM

## COc1cnc(C)c(Nc2nc(=O)c(F)c3n2C(c2cc(F)cc(F)c2)CC3)c1 (centres unmarked) [Compound I-0123]
Class symbols
  IC50: 10 to 100 nM

## COc1ccc(C)c(NC2=NC(=O)N(C)C3=NCC(c4ccc(F)c(F)c4)N23)c1 (centres unmarked) [Compound I-0124]
Class symbols
  IC50: 10 to 100 nM

## COc1ccc(NC2=NC(=O)N(C)C3=NCC(c4ccc(F)c(F)c4)N23)c(C)c1 (centres unmarked) [Compound I-0125]
Class symbols
  IC50: 10 to 100 nM

## COc1cc(C)c(NC2=NC(=O)N(C)C3=NCC(c4ccc(F)c(F)c4)N23)cc1OC (centres unmarked) [Compound I-0126]
Class symbols
  IC50: 10 to 100 nM

## COc1ccc(NC2=NC(=O)N(C)C3=NCC(c4ccc(F)c(F)c4)N23)c(C)n1 (centres unmarked) [Compound I-0127]
Class symbols
  IC50: 10 to 100 nM

## COc1cc(Nc2nc(=O)cc3n2C(c2cc(F)cc(F)c2)CN3)c(C)cc1F (centres unmarked) [Compound I-0128]
Class symbols
  IC50: 10 to 100 nM

## COc1ccc(C)c(NC2=NC(=O)N(C)C3=NCC(c4ccc(F)cc4)N23)c1 (centres unmarked) [Compound I-0129]
Class symbols
  IC50: 10 to 100 nM
